Data published in paper PMC8204404 (Structure(London, England:1993), 2021).
Non-standard residues stand in square brackets, D forms with d. Residues, ends and D or L forms follow the SMILES beside them. No end group written: not given here. *: point of attachment. 5FAM = O=C1OC2(c3ccc(O)cc3Oc3cc(O)ccc32)c2ccc(C(=O)*)cc21; pT = C[C@@H](OP(=O)(O)O)[C@H](N)C(=O)O; pS = N[C@@H](COP(=O)(O)O)C(=O)O

T1: CHK1-KD (CHK1 construct consisting of only the kinase domain, CHK1(1-290)) (Homo sapiens, UniProt O14757)
T1 sequence (O14757 1-290): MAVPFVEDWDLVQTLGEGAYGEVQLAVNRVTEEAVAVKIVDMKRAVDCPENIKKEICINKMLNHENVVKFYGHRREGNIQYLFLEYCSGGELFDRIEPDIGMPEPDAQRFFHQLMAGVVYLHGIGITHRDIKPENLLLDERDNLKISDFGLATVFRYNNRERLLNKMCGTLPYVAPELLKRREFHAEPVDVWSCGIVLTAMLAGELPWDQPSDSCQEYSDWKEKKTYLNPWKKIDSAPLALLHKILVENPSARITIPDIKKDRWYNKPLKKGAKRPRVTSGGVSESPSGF

T2: CHK1-KD (CHK1 construct consisting of only the kinase domain) (Homo sapiens, UniProt O14757)
T2 sequence (O14757 1-290): T1 sequence (O14757 1-290)

T3: CHK1 kinase domain (CHK1-KD), STREP-(3C)-CHK1(1–290)-HIS (human, UniProt O14757 1-290)
T3 sequence: T1 sequence (O14757 1-290)

B1: Flu-CLASPIN_pS945 peptide (peptide)
peptide: GGMEELLNLCSGKFTSQ
modifications: not fully specified
B2: Flu-CLASPIN_pT916 peptide (peptide)
peptide: GGMDELLDLCTGKFTSQ
modifications: not fully specified; fluorescein on the N-terminus; phosphothreonine at 916 (pT916)
B3: Flu-CLASPIN_pS982 peptide (peptide)
peptide: GGMEEALALCSGSFPTD
modifications: not fully specified; fluorescein on the N-terminus; phosphoserine at 982 (pS982)
B4: full-length CHK1, STREP-(3C)-CHK1-HIS, treated with λ-phosphatase (enzyme)
chain: MAVPFVEDWDLVQTLGEGAYGEVQLAVNRVTEEAVAVKIVDMKRAVDCPENIKKEICINKMLNHENVVKFYGHRREGNIQYLFLEYCSGGELFDRIEPDIGMPEPDAQRFFHQLMAGVVYLHGIGITHRDIKPENLLLDERDNLKISDFGLATVFRYNNRERLLNKMCGTLPYVAPELLKRREFHAEPVDVWSCGIVLTAMLAGELPWDQPSDSCQEYSDWKEKKTYLNPWKKIDSAPLALLHKILVENPSARITIPDIKKDRWYNKPLKKGAKRPRVTSGGVSESPSGFSKHIQSNLDFSPVNSASSEENVKYSSSQPEPRTGLSLWDTSPSYIDKLVQGISFSQPTCPDHMLLNSQLLGTPGSSQNPWQRLVKRMTRFFTKLDADKSYQCLKETCEKLGYQWKKSCMNQVTISTTDRRNNKLIFKVNLLEMDDKILVDFRLSKGDGLEFKRHFLKIKGKLIDIVSSQKIWLPAT

What was measured:
[1] = molecular target: T1, CHK1-KD (CHK1 construct consisting of only the kinase domain, CHK1(1-290)); assay: Fluorescence polarization binding of CLASPIN peptides to CHK1-KD; conditions: FP, phosphorylated peptide
[2] = molecular target: T2, CHK1-KD (CHK1 construct consisting of only the kinase domain); format: binding
[3] = molecular target: T3, CHK1 kinase domain (CHK1-KD), …; assay: fluorescence polarisation
[4] = molecular target: B1; assay: fluorescence polarisation

**Q.** With `CSCC[C@H](NC(=O)CNC(=O)CNC(=O)c1ccc2c(c1)C(=O)OC21c2ccc(O)cc2Oc2cc(O)ccc21)C(=O)N[C@@H](CCC(=O)O)C(=O)N[C@@H](CCC(=O)O)C(=O)N[C@@H](C)C(=O)N[C@@H](CC(C)C)C(=O)N[C@@H](C)C(=O)N[C@@H](CC(C)C)C(=O)N[C@@H](CS)C(=O)N[C@@H](COP(=O)(O)O)C(=O)NCC(=O)N[C@@H](CO)C(=O)N[C@@H](Cc1ccccc1)C(=O)N1CCC[C@H]1C(=O)N[C@H](C(=O)N[C@@H](CC(=O)O)C(=O)O)[C@@H](C)O` [pS982] (5FAM-GGMEEALALC[pS]GSFPTD-OH) as the molecule, how does the “affinity for CHK1-KD (in words)” value [1] read?
**A.** high nanomolar range

**Q.** How did the “effect on affinity of CHK1-KD for CDC25C substrate peptide” value [2] turn out when “MEELLNLC[pS]GKFTSQ [CLASPIN pS945 peptide]” was run?
**A.** no significant difference

**Q.** How did the “affinity for CHK1-KD (in words)” value [1] turn out when `CSCC[C@H](NC(=O)CNC(=O)CNC(=O)c1ccc2c(c1)C(=O)OC21c2ccc(O)cc2Oc2cc(O)ccc21)C(=O)N[C@@H](CCC(=O)O)C(=O)N[C@@H](CCC(=O)O)C(=O)N[C@@H](CC(C)C)C(=O)N[C@@H](CC(C)C)C(=O)N[C@@H](CC(N)=O)C(=O)N[C@@H](CC(C)C)C(=O)N[C@@H](CS)C(=O)N[C@@H](COP(=O)(O)O)C(=O)NCC(=O)N[C@@H](CCCCN)C(=O)N[C@@H](Cc1ccccc1)C(=O)N[C@H](C(=O)N[C@@H](CO)C(=O)N[C@@H](CCC(N)=O)C(=O)O)[C@@H](C)O` [pS945] (5FAM-GGMEELLNLC[pS]GKFTSQ-OH) was run?
**A.** high nanomolar range

**Q.** With `CSCC[C@H](NC(=O)CNC(=O)CNC(=O)c1ccc2c(c1)C(=O)OC21c2ccc(O)cc2Oc2cc(O)ccc21)C(=O)N[C@@H](CC(=O)O)C(=O)N[C@@H](CCC(=O)O)C(=O)N[C@@H](CC(C)C)C(=O)N[C@@H](CC(C)C)C(=O)N[C@@H](CC(=O)O)C(=O)N[C@@H](CC(C)C)C(=O)N[C@@H](CS)C(=O)N[C@H](C(=O)NCC(=O)N[C@@H](CCCCN)C(=O)N[C@@H](Cc1ccccc1)C(=O)N[C@H](C(=O)N[C@@H](CO)C(=O)N[C@@H](CCC(N)=O)C(=O)O)[C@@H](C)O)[C@@H](C)OP(=O)(O)O` [pT916] (5FAM-GGMDELLDLC[pT]GKFTSQ-OH) as the molecule, how does the “affinity for CHK1-KD (in words)” value [1] read?
**A.** high nanomolar range

**Q.** Does B1 bind [3]?
**A.** binds

**Q.** Does B2 bind [3]?
**A.** binds

**Q.** Does B3 bind [3]?
**A.** binds

**Q.** Which “fold lower affinity than CHK1-KD” value [4] does the source give for B4 here?
**A.** 2 fold
